Results taken from patent US9833497B2, “Human originated EGF domain proteins and use of the same” (CHENGDU SOURCEBIO LIMITED-LIABILITY COMPANY, priority 2013, dated 2017).

Key:
Format in all cases: cell-based
E. coli DH5α = assay: Antibacterial activity: MIC and growth curve against E. coli DH5α in 96-well plate; conditions: minimal inhibitory concentration against E. coli DH5α; 96-well plate, 5×10^5 CFU/mL, 37° C., judged after 8 h
Outline: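 Log-phase DH5α (OD600 about 0.5, 37° C, 185 rpm in LB) was pelleted, resuspended in fresh LB and seeded at 5×10^5 CFU/mL with recombinant protein at 50, 25 and 12.5 μg/mL (two-fold series), in triplicate. Plates were shaken at 175 rpm, 37° C, and OD600 was read every 30 min. MIC was the lowest concentration with no growth.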

E. coli BL21 = assay: MIC against Gram-negative bacteria: E. coli BL21; conditions: for MIC against E. coli BL21 / MIC E. coli BL21: 5×10^5 CFU/mL; for MIC E. coli BL21: two-fold serial dilution
Outline: (§1)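 LB broth cultures at McFarland 0.5, spun down, resuspended, diluted to 5×10^5 CFU/mL final. Two-fold serial dilutions of purified human EGF domain proteins, triplicate. 37° C, 175 rpm shaking. Endpoint: no visible growth.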

Pseudomonas aeruginosa = assay: MIC against Gram-negative bacteria: Pseudomonas aeruginosa; conditions: for MIC against P. aeruginosa: Pseudomonas aeruginosa; for MIC against P. aeruginosa / MIC P. aeruginosa: 5×10^5 CFU/mL; for MIC P. aeruginosa: two-fold serial dilution
Outline: as §1

Klebsiella pneumonia = assay: MIC against Gram-negative bacteria: Klebsiella pneumonia; conditions: for MIC against K. pneumonia: Klebsiella pneumonia; for MIC against K. pneumonia / MIC K. pneumonia: 5×10^5 CFU/mL; for MIC K. pneumonia: two-fold serial dilution
Outline: as §1

Enterobacter cloacae = assay: MIC against Gram-negative bacteria: Enterobacter cloacae; conditions: for MIC against E. cloacae: Enterobacter cloacae; for MIC against E. cloacae / MIC E. cloacae: 5×10^5 CFU/mL; for MIC E. cloacae: two-fold serial dilution
Outline: as §1

Aeromonas hydrophila = assay: MIC against Gram-negative bacteria: Aeromonas hydrophila; conditions: for MIC against A. hydrophila: Aeromonas hydrophila; for MIC against A. hydrophila / MIC A. hydrophila: 5×10^5 CFU/mL; for MIC A. hydrophila: two-fold serial dilution
Outline: as §1

Citrobacter diversus = assay: MIC against Gram-negative bacteria: Citrobacter diversus; conditions: for MIC against C. diversus: Citrobacter diversus; for MIC against C. diversus / MIC C. diversus: 5×10^5 CFU/mL; for MIC C. diversus: two-fold serial dilution
Outline: as §1

Moraxella catarrhalis = assay: MIC against Gram-negative bacteria: Moraxella catarrhalis; conditions: for MIC against M. catarrhalis: Moraxella catarrhalis; for MIC against M. catarrhalis / MIC M. catarrhalis: 5×10^5 CFU/mL; for MIC M. catarrhalis: two-fold serial dilution
Outline: as §1

Proteus mirabilis = assay: MIC against Gram-negative bacteria: Proteus mirabilis; conditions: for MIC against P. mirabilis: Proteus mirabilis; for MIC against P. mirabilis / MIC P. mirabilis: 5×10^5 CFU/mL; for MIC P. mirabilis: two-fold serial dilution
Outline: as §1

Proteus vulgaris = assay: MIC against Gram-negative bacteria: Proteus vulgaris; conditions: for MIC against P. vulgaris: Proteus vulgaris; for MIC against P. vulgaris / MIC P. vulgaris: 5×10^5 CFU/mL; for MIC P. vulgaris: two-fold serial dilution
Outline: as §1

Serratia marcescens = assay: MIC against Gram-negative bacteria: Serratia marcescens; conditions: for MIC against S. marcescens: Serratia marcescens; for MIC against S. marcescens / MIC S. marcescens: 5×10^5 CFU/mL; for MIC S. marcescens: two-fold serial dilution
Outline: as §1

[1] = E. coli BL21, 10 h cultivation at 37° C.

Substance | MIC (E. coli DH5α) | MIC against E. coli BL21 (E. coli BL21; [1]) | MIC against P. aeruginosa (Pseudomonas aeruginosa; 10 h cultivation at 37° C.) | MIC against K. pneumonia (Klebsiella pneumonia; 10 h cultivation at 37° C.) | MIC against E. cloacae (Enterobacter cloacae; 10 h cultivation at 37° C.) | MIC against A. hydrophila (Aeromonas hydrophila; 10 h cultivation at 37° C.) | MIC against C. diversus (Citrobacter diversus; 10 h cultivation at 37° C.) | MIC against M. catarrhalis (Moraxella catarrhalis; 10 h cultivation at 37° C.) | MIC against P. mirabilis (Proteus mirabilis; 10 h cultivation at 37° C.) | MIC against P. vulgaris (Proteus vulgaris; 10 h cultivation at 37° C.) | MIC against S. marcescens (Serratia marcescens; 10 h cultivation at 37° C.) | MIC E. coli BL21 (E. coli BL21; 10 h cultivation at 37° C.) | MIC P. aeruginosa (Pseudomonas aeruginosa; 10 h cultivation at 37° C.) | MIC K. pneumonia (Klebsiella pneumonia; 10 h cultivation at 37° C.) | MIC E. cloacae (Enterobacter cloacae; 10 h cultivation at 37° C.) | MIC A. hydrophila (Aeromonas hydrophila; 10 h cultivation at 37° C.) | MIC C. diversus (Citrobacter diversus; 10 h cultivation at 37° C.) | MIC M. catarrhalis (Moraxella catarrhalis; 10 h cultivation at 37° C.) | MIC P. mirabilis (Proteus mirabilis; 10 h cultivation at 37° C.) | MIC P. vulgaris (Proteus vulgaris; 10 h cultivation at 37° C.) | other results
PRT955 (DVDECLLQPNACQNGGTCANRNGGYGCVCVNGWSGDDCS; listed as Homo sapiens) | 50 µg/mL | – | – | – | – | – | – | – | – | – | – | – | – | – | – | – | – | – | – | – | MIC (E. coli BL21; [1]): 12.5 µg/mL; MIC (Pseudomonas aeruginosa; P. aeruginosa, 10 h cultivation at 37° C.): 25 µg/mL; MIC (Klebsiella pneumonia; K. pneumonia, 10 h cultivation at 37° C.): 12.5 µg/mL; MIC (Enterobacter cloacae; E. cloacae, 10 h cultivation at 37° C.): 25 µg/mL; MIC (Aeromonas hydrophila; A. hydrophila, 10 h cultivation at 37° C.): 12.5 µg/mL; MIC (Citrobacter diversus; C. diversus, 10 h cultivation at 37° C.): 25 µg/mL; MIC (Moraxella catarrhalis; M. catarrhalis, 10 h cultivation at 37° C.): 12.5 µg/mL; MIC (Proteus mirabilis; P. mirabilis, 10 h cultivation at 37° C.): 12.5 µg/mL; MIC (Proteus vulgaris; P. vulgaris, 10 h cultivation at 37° C.): 25 µg/mL; MIC (Serratia marcescens; S. marcescens, 10 h cultivation at 37° C.): 12.5 µg/mL
PRT1477 (DIDECSENMCAQLCVNYPGGYTCYCDGKKGFKLAQDQKSCE; listed as Homo sapiens) | 50 µg/mL | 12.5 µg/mL | 50 µg/mL | 12.5 µg/mL | 25 µg/mL | 50 µg/mL | 25 µg/mL | 12.5 µg/mL | 25 µg/mL | 50 µg/mL | 12.5 µg/mL | – | – | – | – | – | – | – | – | – | –
PRT1284 (LVDLCSPDLNPCQHEAQCVGTPDGPRCECMPGYAGDNCS; listed as Homo sapiens) | 25 µg/mL | – | – | – | – | – | – | – | – | – | – | – | – | – | – | – | – | – | – | – | MIC against E. coli BL21 (E. coli BL21; E. coli BL21, 96-well plate, 37° C., 10 h): 50 µg/mL; MIC against P. aeruginosa (Pseudomonas aeruginosa; 96-well plate, 37° C., 10 h): 25 µg/mL; MIC against K. pneumonia (Klebsiella pneumonia; 96-well plate, 37° C., 10 h): 12.5 µg/mL; MIC against E. cloacae (Enterobacter cloacae; 96-well plate, 37° C., 10 h): 25 µg/mL; MIC against A. hydrophila (Aeromonas hydrophila; 96-well plate, 37° C., 10 h): 12.5 µg/mL; MIC against C. diversus (Citrobacter diversus; 96-well plate, 37° C., 10 h): 12.5 µg/mL; MIC against M. catarrhalis (Moraxella catarrhalis; 96-well plate, 37° C., 10 h): 50 µg/mL; MIC against P. mirabilis (Proteus mirabilis; 96-well plate, 37° C., 10 h): 12.5 µg/mL; MIC against P. vulgaris (Proteus vulgaris; 96-well plate, 37° C., 10 h): 25 µg/mL; MIC against S. marcescens (Serratia marcescens; 96-well plate, 37° C., 10 h): 12.5 µg/mL
PRT1474 (IPDQCSPLPCNEDGYMSCKDGKASFTCTCKPGWQGEKCE; listed as Homo sapiens) | 50 µg/mL | 12.5 µg/mL | 25 µg/mL | 25 µg/mL | 50 µg/mL | 25 µg/mL | 12.5 µg/mL | 25 µg/mL | 50 µg/mL | 12.5 µg/mL | 25 µg/mL | – | – | – | – | – | – | – | – | – | –
PRT1160 (DTEDCKSASCKNGTTSTHLRGYFFRKCVPGFKGTQCE; listed as Homo sapiens) | 12.5 µg/mL | – | – | – | – | – | – | – | – | – | – | 25 µg/mL | 12.5 µg/mL | 25 µg/mL | 12.5 µg/mL | 12.5 µg/mL | 25 µg/mL | 12.5 µg/mL | 25 µg/mL | 12.5 µg/mL | MIC S. marcescens (Serratia marcescens; 10 h cultivation at 37° C.): 25 µg/mL
PRT1072 (TQQVCAGYCANNSTCTVNQGNQPQCRCLPGFLGDRCQ; listed as Homo sapiens) | 50 µg/mL | – | – | – | – | – | – | – | – | – | – | 12.5 µg/mL | 12.5 µg/mL | 25 µg/mL | 50 µg/mL | 12.5 µg/mL | 50 µg/mL | 12.5 µg/mL | 12.5 µg/mL | 12.5 µg/mL | MIC S. marcescens (Serratia marcescens; 10 h cultivation at 37° C.): 12.5 µg/mL
